# What was measured:
# [1] = tested on: human pancreatic cancer, malignant melanoma, papillary thyroid cancer, breast cancer, colon cancer, and prostate cancer cells; conditions: human cancer cells with high basal TLR3 and Wnt5a; cited from earlier work
# [2] = tested on: 4T1 cells; conditions: cited from earlier work
# [3] = tested on: MCF-7 and MDA-MB-231 as well as 4T1 cancer cell lines; conditions: addition of CXCL5, cited from earlier work
# [4] = tested on: MDA-MB-231 cells; test: Transwell migration of MDA-MB-231 cells towards chondrocyte conditioned media; type: cell-based, human; conditions: chondrocyte conditioned media as chemoattractant
# Procedure: Cell differentiation: Primary human monocytes, articular chondrocytes, and adipose tissue derived stromal cells were isolated from healthy donors and differentiated into osteoclasts (OC), articular chondrocytes (AC) and osteoblasts (OB) respectively. Cell lines: MDA-MB-231 (MDA), a metastatic, and MCF7A, an epithelial like breast cancer cell line, were used in this study.
# Serum free conditioned media: After differentiation, cells were washed 2 times with PBS and incubated with DMEM for 24 hours. After 24 hours, conditioned media was harvested and passed through a 0.45 μm filter.
# Migration: MDA-MB-231 cells were serum-starved for 24 hours before testing of the migration. Migration media was plated in the bottom of the well and a transwell insert (8 μm pores) was placed on top. 25.000 cells were seed on top of the filter. After 15 hours, the filters were washed and non-migrated cells were removed. Migrated cells were stained with H&E and counted under a microscope. Numbers were obtained as the average number of 5 random fields per filter.
# [5] = biological target: T1, recombinant human CXCL5/ENA-78 (Homo sapiens, UniProt P42830); test: Phage display identification of CXCL5 binding peptides; conditions: region of CXCL5 of FIGS. 7 and 8
# T1 sequence (P42830 37-114): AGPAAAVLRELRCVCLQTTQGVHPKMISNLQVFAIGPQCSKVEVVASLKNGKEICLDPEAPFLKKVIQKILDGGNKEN
# Description: Phage display: 12 amino acid binding peptides towards CXCL5 were identified using a commercial phage display system from […].
compound,measurement,setting,value
"Cn1c(-c2ccccc2)c[nH]c1=S [Peptide C10, 5-phenylmethimazole]",cell growth and migration,[1],suppression of cell growth and migration
"CXCL5: small cytokine of the CXC chemokine family, epithelial-derived neutrophil-activating peptide 78","tumor nodules in livers, lungs and intestines versus control group",[2]; 4T1 mouse model,more numerous and larger
same,metastasis of 4T1 cells in mice,[2]; CXCL5 0.5 mg/kg,increased the metastasis
same,migration and invasiveness,"[3]; MCF-7, MDA-MB-231 and 4T1 cancer cell lines",enhance the migration and invasiveness
same,cell proliferation,[3]; MCF-7 or MDA-MB-231 cancer cells,did not increase cell proliferation
H-IGKVDSNSVSHA-NH2 [Peptide 2],migration of MDA-MB-231 cells in the presence of the chondrocyte secretome,[4],reduces migration
same,binding to the pocket region of CXCL5,[5],bind to said region
H-Pro-Val-Trp-Ala-his-leu-Asn-Pro-Pro-Trp-Leu-Ala-NH2 [Peptide 1],migration of MDA-MB-231 cells in the presence of the chondrocyte secretome,[4],reduces migration
same,binding to the pocket region of CXCL5,[5],bind to said region

# Reference: US10495642B2, “Inhibitors of proteins specific for the secretome of a chondrocyte for use in the treatment of breast cancer metastasis” (ALBERT-LUDWIGS-UNIVERSITÄT FREIBURG, priority 2013, dated 2019)
